Assay results taken from publication PMC3795068, “Functional Evolution of a Multigene Family: Orthologous and Paralogous Pheromone Receptor Genes in the Turnip Moth, Agrotis segetum” (PLoS ONE, 2013).
Positions count from the first letter of the chain named.

Columns and labels:
Experiment in all cases: two-electrode voltage clamp, Xenopus oocytes, inward current
Assay type in all cases: cell-based
AsegOR10 = target: T1, AsegOR10 (Agrotis segetum, UniProt U5KJI4); details: agonist, 100 uM stimulus, 20 s, -80 mV, Ringer's pH 7.6, with Orco
T1 construct: full-length ORF, 432 aa, pCS2+ cRNA co-injected with Orco (473 aa) cRNA in Xenopus laevis oocytes; with Odorant receptor co-receptor (Orco)
T1 sequence (U5KJI4 1-432): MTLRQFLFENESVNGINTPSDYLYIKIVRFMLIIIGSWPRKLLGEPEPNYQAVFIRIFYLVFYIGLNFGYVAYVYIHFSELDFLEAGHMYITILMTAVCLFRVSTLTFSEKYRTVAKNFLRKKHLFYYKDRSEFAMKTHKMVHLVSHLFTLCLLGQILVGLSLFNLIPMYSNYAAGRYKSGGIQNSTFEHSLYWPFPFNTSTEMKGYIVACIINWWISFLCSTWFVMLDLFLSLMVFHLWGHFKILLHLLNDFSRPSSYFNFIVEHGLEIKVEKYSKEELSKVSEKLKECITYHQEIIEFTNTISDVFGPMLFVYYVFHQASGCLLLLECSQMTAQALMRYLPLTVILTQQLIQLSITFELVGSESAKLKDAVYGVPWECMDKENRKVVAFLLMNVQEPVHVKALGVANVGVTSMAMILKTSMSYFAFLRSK
T1 sequence (U5KJY5 1-473 partner): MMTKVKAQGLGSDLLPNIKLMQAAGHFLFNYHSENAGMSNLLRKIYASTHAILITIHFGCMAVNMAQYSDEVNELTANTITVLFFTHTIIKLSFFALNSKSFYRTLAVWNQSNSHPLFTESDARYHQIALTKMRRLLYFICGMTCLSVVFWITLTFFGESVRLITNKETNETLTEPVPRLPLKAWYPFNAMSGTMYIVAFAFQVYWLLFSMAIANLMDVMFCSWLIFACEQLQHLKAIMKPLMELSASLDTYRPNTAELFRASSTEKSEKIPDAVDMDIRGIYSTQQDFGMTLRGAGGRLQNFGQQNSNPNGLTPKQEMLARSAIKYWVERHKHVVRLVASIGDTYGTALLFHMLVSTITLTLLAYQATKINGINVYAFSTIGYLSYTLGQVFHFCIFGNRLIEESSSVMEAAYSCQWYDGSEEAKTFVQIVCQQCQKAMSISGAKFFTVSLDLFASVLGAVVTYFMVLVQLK

AsegOR9 = target: T2, AsegOR9 (Agrotis segetum, UniProt U5KJQ9); details: agonist; 100 uM stimulus, 20 s, -80 mV, Ringer's pH 7.6, with Orco; dose response curve
T2 construct: full-length ORF, 433 aa, pCS2+ cRNA co-injected with Orco (473 aa) cRNA in Xenopus laevis oocytes; with Odorant receptor co-receptor (Orco)
T2 sequence (U5KJQ9 1-433): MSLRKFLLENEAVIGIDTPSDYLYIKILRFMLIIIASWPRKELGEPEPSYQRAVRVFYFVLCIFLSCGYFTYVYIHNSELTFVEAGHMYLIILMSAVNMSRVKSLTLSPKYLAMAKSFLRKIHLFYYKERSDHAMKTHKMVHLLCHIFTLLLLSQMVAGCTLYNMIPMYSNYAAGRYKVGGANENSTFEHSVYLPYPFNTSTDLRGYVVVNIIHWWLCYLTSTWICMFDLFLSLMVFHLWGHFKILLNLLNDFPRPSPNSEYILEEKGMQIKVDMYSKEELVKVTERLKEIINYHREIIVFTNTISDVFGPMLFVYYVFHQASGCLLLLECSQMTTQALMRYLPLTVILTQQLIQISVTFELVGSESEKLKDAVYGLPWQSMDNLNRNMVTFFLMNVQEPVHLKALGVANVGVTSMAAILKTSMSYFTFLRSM
T2 sequence (U5KJY5 1-473 partner): T1 sequence (U5KJY5 1-473 partner)

AsegOR1 = target: T3, AsegOR1 (Agrotis segetum, UniProt U5KK32); details: agonist; 100 uM stimulus, 20 s, -80 mV, Ringer's pH 7.6, with Orco; dose response curve
T3 construct: full-length ORF, 432 aa, pCS2+ cRNA co-injected with Orco (473 aa) cRNA in Xenopus laevis oocytes; with Odorant receptor co-receptor (Orco)
T3 sequence (U5KK32 1-432): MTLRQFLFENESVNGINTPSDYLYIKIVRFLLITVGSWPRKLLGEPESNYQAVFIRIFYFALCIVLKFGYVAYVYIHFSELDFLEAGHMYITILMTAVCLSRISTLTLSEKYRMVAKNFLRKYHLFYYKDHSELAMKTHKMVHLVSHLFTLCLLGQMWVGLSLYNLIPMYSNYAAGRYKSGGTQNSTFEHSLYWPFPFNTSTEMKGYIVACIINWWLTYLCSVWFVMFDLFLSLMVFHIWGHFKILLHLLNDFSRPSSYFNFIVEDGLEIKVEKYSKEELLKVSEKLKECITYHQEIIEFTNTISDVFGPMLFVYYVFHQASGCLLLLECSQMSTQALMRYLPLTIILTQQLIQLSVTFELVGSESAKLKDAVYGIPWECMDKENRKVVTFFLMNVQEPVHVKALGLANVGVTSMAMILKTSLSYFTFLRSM
T3 sequence (U5KJY5 1-473 partner): T1 sequence (U5KJY5 1-473 partner)

AsegOR8 = target: T4, AsegOR8 (Agrotis segetum, UniProt U5KJT2); details: agonist; 100 uM stimulus, 20 s, -80 mV, Ringer's pH 7.6, with Orco; dose response curve
T4 construct: with Odorant receptor co-receptor (Orco)
T4 sequence (U5KJT2 1-430): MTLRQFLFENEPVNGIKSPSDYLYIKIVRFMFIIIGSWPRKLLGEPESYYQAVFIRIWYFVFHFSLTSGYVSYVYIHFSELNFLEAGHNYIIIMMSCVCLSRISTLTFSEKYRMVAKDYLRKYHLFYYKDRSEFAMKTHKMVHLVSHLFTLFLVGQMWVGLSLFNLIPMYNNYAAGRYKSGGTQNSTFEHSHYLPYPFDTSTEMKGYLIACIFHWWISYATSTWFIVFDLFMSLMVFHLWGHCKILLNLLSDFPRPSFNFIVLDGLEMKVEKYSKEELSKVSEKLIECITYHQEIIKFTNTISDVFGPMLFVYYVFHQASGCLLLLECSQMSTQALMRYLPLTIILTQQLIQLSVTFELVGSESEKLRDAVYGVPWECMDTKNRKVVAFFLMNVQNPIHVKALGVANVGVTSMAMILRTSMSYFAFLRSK
T4 sequence (U5KJY5 1-473 partner): T1 sequence (U5KJY5 1-473 partner)

AsegOR6 = target: T5, AsegOR6 (Agrotis segetum, UniProt U5KJY6); details: agonist; 100 uM stimulus, 20 s, -80 mV, Ringer's pH 7.6, with Orco; dose response curve
T5 construct: full-length ORF, 430 aa, pCS2+ cRNA co-injected with Orco (473 aa) cRNA in Xenopus laevis oocytes; with Odorant receptor co-receptor (Orco)
T5 sequence (U5KJY6 1-430): T4 sequence (U5KJT2 1-430) with S48P, Q51K, V53I, F60L, S279L, R368K, A425T
T5 sequence (U5KJY5 1-473 partner): T1 sequence (U5KJY5 1-473 partner)

AsegOR4 = target: T6, AsegOR4 (Agrotis segetum, UniProt U5KJQ7); details: agonist; 100 uM stimulus, 20 s, -80 mV, Ringer's pH 7.6, with Orco; dose response curve
T6 construct: full-length ORF, 424 aa, pCS2+ cRNA co-injected with Orco (473 aa) cRNA in Xenopus laevis oocytes; with Odorant receptor co-receptor (Orco)
T6 sequence (U5KJQ7 1-424): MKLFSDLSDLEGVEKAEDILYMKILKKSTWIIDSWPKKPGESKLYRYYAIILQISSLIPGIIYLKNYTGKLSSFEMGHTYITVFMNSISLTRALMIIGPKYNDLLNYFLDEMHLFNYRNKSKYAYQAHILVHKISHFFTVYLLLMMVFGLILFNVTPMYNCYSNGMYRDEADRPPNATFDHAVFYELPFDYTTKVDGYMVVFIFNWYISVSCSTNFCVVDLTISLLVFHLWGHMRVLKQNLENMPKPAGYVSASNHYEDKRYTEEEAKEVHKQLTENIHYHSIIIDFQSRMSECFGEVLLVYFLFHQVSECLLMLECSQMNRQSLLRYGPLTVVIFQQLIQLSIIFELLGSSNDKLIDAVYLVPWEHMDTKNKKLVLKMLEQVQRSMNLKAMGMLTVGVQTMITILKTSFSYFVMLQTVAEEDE
T6 sequence (U5KJY5 1-473 partner): T1 sequence (U5KJY5 1-473 partner)

AsegOR5 = target: T7, AsegOR5 (Agrotis segetum, UniProt U5KJI3); details: agonist, 100 uM stimulus, 20 s, -80 mV, Ringer's pH 7.6, with Orco
T7 construct: full-length ORF, 443 aa, pCS2+ cRNA co-injected with Orco (473 aa) cRNA in Xenopus laevis oocytes; with Odorant receptor co-receptor (Orco)
T7 sequence (U5KJI3 1-443): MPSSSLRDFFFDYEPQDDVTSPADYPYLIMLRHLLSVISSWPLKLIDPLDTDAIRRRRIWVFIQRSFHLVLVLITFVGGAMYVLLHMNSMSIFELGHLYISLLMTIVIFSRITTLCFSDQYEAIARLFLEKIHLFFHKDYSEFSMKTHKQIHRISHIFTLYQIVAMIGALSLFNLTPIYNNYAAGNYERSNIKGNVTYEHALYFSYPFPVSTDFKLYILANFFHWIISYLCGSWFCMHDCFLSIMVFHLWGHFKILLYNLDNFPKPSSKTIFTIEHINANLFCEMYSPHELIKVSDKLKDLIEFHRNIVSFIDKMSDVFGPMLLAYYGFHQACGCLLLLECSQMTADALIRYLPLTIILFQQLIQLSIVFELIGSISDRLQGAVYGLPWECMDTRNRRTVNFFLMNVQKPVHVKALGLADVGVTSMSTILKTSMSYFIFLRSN
T7 sequence (U5KJY5 1-473 partner): T1 sequence (U5KJY5 1-473 partner)

AsegOR3 = target: T8, AsegOR3 (Agrotis segetum, UniProt U5KJT1); details: agonist; 100 uM stimulus, 20 s, -80 mV, Ringer's pH 7.6, with Orco
T8 construct: full-length ORF, 435 aa, pCS2+ cRNA co-injected with Orco (473 aa) cRNA in Xenopus laevis oocytes; with Odorant receptor co-receptor (Orco)
T8 sequence (U5KJT1 1-435): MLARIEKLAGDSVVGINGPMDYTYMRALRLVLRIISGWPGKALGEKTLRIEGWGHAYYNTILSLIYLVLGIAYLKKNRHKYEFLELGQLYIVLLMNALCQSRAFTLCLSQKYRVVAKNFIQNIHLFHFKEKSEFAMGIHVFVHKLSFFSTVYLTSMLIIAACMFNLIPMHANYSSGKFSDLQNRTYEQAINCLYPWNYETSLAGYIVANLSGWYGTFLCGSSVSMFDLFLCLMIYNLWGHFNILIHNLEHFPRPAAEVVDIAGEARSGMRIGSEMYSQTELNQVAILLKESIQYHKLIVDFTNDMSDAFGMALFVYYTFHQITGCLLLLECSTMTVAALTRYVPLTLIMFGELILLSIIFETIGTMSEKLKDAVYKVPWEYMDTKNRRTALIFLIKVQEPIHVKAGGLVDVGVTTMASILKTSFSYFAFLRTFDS
T8 sequence (U5KJY5 1-473 partner): T1 sequence (U5KJY5 1-473 partner)

AsegOR7 = target: T9, AsegOR7 (Agrotis segetum, UniProt U5KK33); details: agonist; 100 uM stimulus, 20 s, -80 mV, Ringer's pH 7.6, with Orco
T9 construct: with Odorant receptor co-receptor (Orco)
T9 sequence (U5KK33 1-432): T3 sequence (U5KK32 1-432) with L31M, I33V, S101F, I103V, M114T, H131R, L134Y, I376V, K383T, E384K
T9 sequence (U5KJY5 1-473 partner): T1 sequence (U5KJY5 1-473 partner)

Compound: CCCC/C=C\CCCCOC(C)=O [Z5-10:OAc]
- two-electrode voltage clamp, Xenopus oocytes, inward current (AsegOR10; dose response curve): AsegOR10 responded to Z9-14:OAc and Z5-10:OAc but with low sensitivity
- two-electrode voltage clamp, Xenopus oocytes, inward current (AsegOR9): co-expressing AsegOR9 (Cluster I) and Aseg\Orco robustly and specifically responded to Z5-10:OAc
- two-electrode voltage clamp, Xenopus oocytes, inward current (AsegOR1): Oocytes co-expressing AsegOR1 and Aseg\Orco also responded to Z5-10:OAc
- two-electrode voltage clamp, Xenopus oocytes, inward current (AsegOR8): Different sensitivities of the six paralogues to the main pheromone component Z5-10:OAc

Compound: CCCC/C=C\CCCCO [Z5-10:OH]
- two-electrode voltage clamp, Xenopus oocytes, inward current (AsegOR6): oocytes that showed the strongest response to another antagonist Z5-10:OH
- two-electrode voltage clamp, Xenopus oocytes, inward current (AsegOR8): Two of them (AsegOR6 and AsegOR8) showed strong responses to Z5-10:OH (Figure 5B)

Compound: CCCC/C=C\CCCCCCOC(C)=O [Z7-12:OAc]
- two-electrode voltage clamp, Xenopus oocytes, inward current (AsegOR4): AsegOR4 (Cluster IV) was specifically responsive to the pheromone component Z7-12:OAc
- two-electrode voltage clamp, Xenopus oocytes, inward current (AsegOR5): a much smaller response to Z7-12:OAc and marginal responses to other tested compounds
- two-electrode voltage clamp, Xenopus oocytes, inward current (AsegOR3): albeit with Z7-12:OAc standing out as the most active one
- two-electrode voltage clamp, Xenopus oocytes, inward current (AsegOR7): receptors for Z8-12:OAc and Z7-12:OAc (AsegOR1 and AsegOR7)

Compound: CCC/C=C\CCCCCCCOC(C)=O [Z8-12:OAc]
- two-electrode voltage clamp, Xenopus oocytes, inward current (AsegOR7): receptors for Z8-12:OAc and Z7-12:OAc (AsegOR1 and AsegOR7)

Compound: CCCC/C=C\CCCCCCCCOC(C)=O [Z9-14:OAc]
- two-electrode voltage clamp, Xenopus oocytes, inward current (AsegOR5; dose response curve): AsegOR5 (Cluster II) showed the largest response to Z9-14:OAc
- two-electrode voltage clamp, Xenopus oocytes, inward current (AsegOR10): AsegOR10 responded to Z9-14:OAc and Z5-10:OAc but with low sensitivity
